Where “and” joins values, the source holds several entries; their conditions need not be identical. Equal entries are not always repeated.

The results in this text go back to the Deep4Chem optical property database.

This series is described as follows: photoluminescence quantum yield (fraction); solvent given as SMILES.

With `Cc1ccc(C2=C3C=CC(/C=C/c4ccccc4)=[N+]3[B-](F)(F)n3c(Cl)ccc32)cc1`, the photoluminescence quantum yield stood at 0.72 (in C1CCCCC1); 0.56 (in C1CCOC1); 0.6 (in C1COCCO1); 0.57 (in CCOC(C)=O); 0.55 (in CO); 0.69 (in Cc1ccccc1). Under “in ClC(Cl)Cl”, this compound registered a photoluminescence quantum yield of 0.68.
As to `COc1ccc(-c2csc(/C(C#N)=C/c3c(Cl)cccc3Cl)n2)cc1`, the photoluminescence quantum yield (in CC#N) stood at 0.038.
For `CCOC(=O)/C=C/C1=C(c2ccc(C)cc2)C2=Nc3c(-c4ccc(C)cc4)cc(-c4ccc(C)cc4)n3[B-](F)(F)[N+]2=C1c1ccc(C)cc1`, under “in ClC(Cl)Cl”, the photoluminescence quantum yield turned out to be 0.24.
`COC(=O)c1ccc(C#Cc2ccc(N(C)C)cc2)cc1`: the photoluminescence quantum yield is, setting by setting: (in C1CCCCC1) 0.351; (in C1CCOC1) 0.15; (in C1COCCO1) 0.303; (in CC1CCCO1) 0.248; (in CC#N) 0.134; (in CC(C)=O) 0.428. Also, the photoluminescence quantum yield stood at 0.31 (in CC(C)CC(C)(C)C); 0.013 (in CC(C)O); 0.314 (in CCCCCCCCCCCCCCCC); 0.339 (in CCCCCCCCCCCCCCCCCl); 0.14 (in CCOC(C)=O); 0.216 (in CCOCC). For the same compound, the photoluminescence quantum yield by setting is: (in CN(C)C=O) 0.065; (in CO) 0.001; (in CS(C)=O) 0.053; (in Cc1ccccc1) 0.324.
In turn, `CC1(C)c2cccc(-c3nc(-c4ccccc4)nc(-c4ccccc4)n3)c2Oc2c(-n3c4ccccc4c4ccccc43)cccc21` showed a photoluminescence quantum yield (in Cc1ccccc1) of 0.059.
In the case of `CCCC1=Cc2nc1ccc1[nH]c(cc1CCC)c1nc(c(NC(C)=O)cc3[nH]c2cc3CCC)C(CCC)=C1`, the photoluminescence quantum yield (in Cc1ccccc1) turned out to be 0.1.
Regarding `CCCCN1C(=O)c2ccc3c4ccc5c6c(ccc(c7ccc(c2c37)C1=O)c64)C(=O)N(CCCC)C5=O`, under “in ClC(Cl)Cl”, the photoluminescence quantum yield worked out at 0.98.
For the compound `Cn1cccc1-c1cc(C#N)ccc1C#N`, the photoluminescence quantum yield turned out to be 0.139 (in C1CCOC1); 0.024 (in CC#N); 0.378 (in CCCCCC); 0.281 (in CCCCOCCCC); 0.206 (in CCOCC).
As to `CCCCCCCCCCCCOc1ccc(C2=C3C(=O)N(CC(OCC)OCC)C(c4ccc(OCCCCCCCCCCCC)c(OCCCCCCCCCCCC)c4)=C3C(=O)N2CC(OCC)OCC)cc1OCCCCCCCCCCCC`, the photoluminescence quantum yield (in ClC(Cl)Cl) was found to be 0.9.
In turn, `CCn1c(-c2ccc(-c3ccc4c(c3)C(c3ccccc3)(c3ccccc3)c3ccccc3-4)cc2)c(-c2ccc3ccccc3c2)c(-c2ccc3ccccc3c2)c1-c1ccc(-c2ccc3c(c2)C(c2ccccc2)(c2ccccc2)c2ccccc2-3)cc1` displayed a photoluminescence quantum yield (in CCOC(C)=O) of 0.99.
On to `c1ccc2c(c1)cc(-c1cc(-c3nccs3)nc(-c3nccs3)c1)c1ccccc12`, for which the photoluminescence quantum yield (in CC#N) was 0.234, the photoluminescence quantum yield (in CCCCCC) is 0.142, the photoluminescence quantum yield (in CO) came out at 0.161 and the photoluminescence quantum yield (in ClC(Cl)Cl) turned out to be 0.312.
Regarding `CC(=O)c1c(N[C@H](C(=O)O)C(C)C)c2ccc(N(C)C)cc2oc1=O`, the photoluminescence quantum yield (in ClCCl) worked out at 0.004.
`CC1=C(C)C(c2c(C)c(C)c3n2[B-](F)(F)[N+]2=C(C)C(C)=C(C)C2=C3)=[N+]2C1=Cc1c(C)c(C)c(C)n1[B-]2(F)F` yielded a photoluminescence quantum yield (in ClCCl) of 0.7.
`O=C1c2ccccc2C(=O)C1C1C(=O)c2c3ccccc3cc3cc4ccccc4c1c23` (stereo unspecified): the photoluminescence quantum yield (in C1CCOC1) stood at 0.294; the photoluminescence quantum yield (in CC#N) came to 0.139; the photoluminescence quantum yield (in CCCCCC) came to 0.339; the photoluminescence quantum yield (in Cc1ccccc1) worked out at 0.356; the photoluminescence quantum yield (in ClCCl) was found to be 0.247.
Regarding `Cc1ccc2c(c1)n(C)c(-c1ccc(-c3ccc(-c4ccc(-c5n(C)c6cc(C)ccc6[n+]5C)cc4)cc3)cc1)[n+]2C`, the photoluminescence quantum yield (in O) is 0.68.
For the compound `CCCn1c2cccc3oc4cccc5c4[c+](c32)c2c1cccc2n5CCC`, the photoluminescence quantum yield runs as follows: (in CC#N) 0.44; (in CO) 0.41; (in ClCCl) 0.46; (in OCC(O)CO) 0.39.
The compound `CC(C)(C)c1ccc(-c2c(-c3ccc4c5ccccc5n(-c5ccccc5)c4c3)c(C#N)c(-c3ccc4c5ccccc5n(-c5ccccc5)c4c3)c(-c3ccc(C(C)(C)C)cc3)c2-c2ccc(C(C)(C)C)cc2)cc1` had a photoluminescence quantum yield (in C1CCOC1) of 0.457.
Regarding `CN(C)c1ccc(/C=C/c2ncc3ccccc3n2)cc1`, the photoluminescence quantum yield is 0.06 (in CC#N) and 0.21 (in ClCCl).
Regarding `CC(C)c1cc(C(C)C)c(-c2nnc(-c3ccc(-n4c5ccccc5c5ccccc54)cc3)o2)c(C(C)C)c1`, the photoluminescence quantum yield (in Cc1ccccc1) was found to be 0.61.
For `CCN1C(=O)C(C2C(=O)c3c4ccccc4cc4cc5ccccc5c2c34)SC1=S` (stereo unspecified), the photoluminescence quantum yield (in C1CCOC1) stood at 0.258; the photoluminescence quantum yield (in CC#N) stood at 0.135; the photoluminescence quantum yield (in CCCCCC) was found to be 0.33; the photoluminescence quantum yield (in Cc1ccccc1) amounted to 0.339; the photoluminescence quantum yield (in ClCCl) turned out to be 0.229.
Consider `N#Cc1c(-n2c3ccccc3c3ccccc32)c(-n2c3ccccc3c3ccccc32)c(C#N)c(-n2c3ccccc3c3ccccc32)c1-n1c2ccccc2c2ccccc21`, for which the photoluminescence quantum yield (in Cc1ccccc1) was 0.716 and 0.72.
For the compound `CN(C)c1ccc2nc(-c3ccc(C(=O)OC[C@H](NC(=O)OC(C)(C)C)C(=O)OCc4ccccc4)cc3)sc2c1`, the photoluminescence quantum yield (in C1CCCCC1) amounted to 0.86; the photoluminescence quantum yield (in CC#N) was found to be 0.94; the photoluminescence quantum yield (in CC(C)O) came out at 0.9; the photoluminescence quantum yield (in CO) stood at 0.68; the photoluminescence quantum yield (in CS(C)=O) amounted to 0.94; the photoluminescence quantum yield (in ClC(Cl)Cl) came to 0.98. Besides, the photoluminescence quantum yield (in c1ccccc1) came to 0.92.
Regarding `CCC1=C(C)C(=O)n2c1cc1c(C)c(CC)c(C)n1c2=O`, the photoluminescence quantum yield worked out at 0.93 (in CO), 0.98 (in CS(C)=O), 1 (in ClC(Cl)Cl) and 0.98 (in c1ccccc1).
Regarding `O=c1oc2ccc3ccc(O)cc3c2nc1-c1ccccc1`, the photoluminescence quantum yield (in c1ccccc1) was 0.606.
The compound `N#Cc1nc(N(Cc2ccc(Br)cc2)Cc2ccc(Br)cc2)c(C#N)nc1N(Cc1ccc(Br)cc1)Cc1ccc(Br)cc1` returned a photoluminescence quantum yield (in ClC(Cl)Cl) of 0.71.
As to `Oc1ccc2ccccc2c1-c1nc(-c2ccccc2)c2ccccn12`, the photoluminescence quantum yield (in ClCCl) was determined as 0.136.
`COCCC1(CCOC)c2cc(-c3ccc(OC)cc3)ccc2-c2ccc(-c3ccc(OC)cc3)cc21`: the photoluminescence quantum yield (in C1CCCCC1) turned out to be 0.61.
For `CC(C)(C)c1ccc(-c2c(-c3cccc(-n4c5ccccc5c5ccccc54)c3)c(C#N)c(-c3cccc(-n4c5ccccc5c5ccccc54)c3)c(-c3ccc(C(C)(C)C)cc3)c2-c2ccc(C(C)(C)C)cc2)cc1`, the photoluminescence quantum yield (in C1CCOC1) stood at 0.064.
`Cc1ccsc1-c1ccc(-c2ccc(-c3sccc3C)s2)s1` registered a photoluminescence quantum yield (in CCC(C)C) of 0.19.
For `Cc1cc(-c2ccc3ccccc3c2)cc(C)[o+]1`, the photoluminescence quantum yield (in ClCCl) was 0.64.
As for `CC(C)(C)c1cc2c(c(C(C)(C)C)c1)O[B-](F)(F)[n+]1c-2nc(-c2ccccc2)c2cc(Cl)ccc21`, where the note is “in Cc1ccccc1”, the photoluminescence quantum yield turned out to be 0.001.
Where the note is “in C1CCCCC1”, `C[Si](C)(C)c1ccc(C#N)c2ccccc12` yielded a photoluminescence quantum yield of 0.66.
`N#Cc1c(-n2c3ccccc3c3ccccc32)cc(N2c3ccccc3C(c3ccccc3)(c3ccccc3)c3ccccc32)cc1-n1c2ccccc2c2ccccc21` displayed a photoluminescence quantum yield (in Cc1ccccc1) of 0.27.
With `CCOC(=O)c1sc(SC)c2c(=O)[nH]nnc12`, the photoluminescence quantum yield was found to be 0.0075 (in C1CCOC1); 0.018 (in CC#N); 0.023 (in CCO); 0.0037 (in CN(C)C=O); 0.029 (in CO); 0.0054 (in CS(C)=O).
Take `CC(C)(C)c1ccc2c(c1)c1cc(C(C)(C)C)ccc1n2-c1ccc(-c2ccc3c(c2)C(=O)c2ccc(-c4ccc(-n5c6ccc(C(C)(C)C)cc6c6cc(C(C)(C)C)ccc65)cc4)cc2C3=O)cc1`: the photoluminescence quantum yield is 0.6 (in Cc1ccccc1) and 0.65 (in c1ccc2c(c1)c1ccccc1n2-c1ccc(-c2ccc(-n3c4ccccc4c4ccccc43)cc2)cc1).
Regarding `CCN(CC)c1ccc(-c2nc3c(nc2-c2ccc(B(c4c(C)cc(C)cc4C)c4c(C)cc(C)cc4C)cc2)c2ccccc2n3C)cc1`, under “in C1CCOC1”, the photoluminescence quantum yield turned out to be 0.21.
As to `Cc1cccc2nc3[nH]c(=O)[nH]c(=O)c3nc12`, under “in CC#N”, the photoluminescence quantum yield was found to be 0.017.
Under “in O”, `CCNc1ccc2c(c1)C(C)(C)C(=O)C=C2` had a photoluminescence quantum yield of 0.18.
For the compound `CC1=N/C(=C\c2cc(N(C)C)ccc2C#N)C(=O)N1C`, the photoluminescence quantum yield is, setting by setting: (in C1CCOC1) 0.19; (in CC#N) 0.07; (in CCCCCC) 0.6.
`C(=C\c1c2ccccc2cc2ccccc12)/c1cccc2ccccc12`: the photoluminescence quantum yield by setting is: (in CC1CCCCC1) 0.43; (in CC#N) 0.35.
Turning to `COC(=O)c1ccc(C#Cc2ccccc2)cc1`, the photoluminescence quantum yield was 0.421 (in C1CCCCC1); 0.277 (in CC#N); 0.398 (in CC(C)O); 0.42 (in CCCCCC); 0.429 (in CCCCCCCCCCCCCCCC); 0.441 (in CCCCCCCCCCCCCCCCCl). Where the note is “in CO”, this compound showed a photoluminescence quantum yield of 0.305.
`N#Cc1c(N2CCCCC2)cc(-c2ccc3c(c2)OCO3)c2c1-c1cccc3cccc-2c13` gave a photoluminescence quantum yield (in O) of 0.3.
